Where two headings read alike, the source gives them in different places.
Assays:
[1] = target: T1, EGFR with insertion of SVD between D770 and N771 (EGFR ins SVD) (Homo sapiens, UniProt P00533, DUP768-770); assay: Exon20-Mutant-EGFR(D770_N771insSVD) kinase assay (TR-FRET); assay type: biochemical; conditions: 2 mM ATP, several values per example where printed
T1 construct: made in house; host or cells: Sf9 insect cells (baculovirus)

Ba/F3-EGFR-insSVD cells = Ba/F3-EGFR-insSVD cells (Homo sapiens, UniProt P00533, DUP768-770, cells depend on it); assay: Ba/F3 cell survival assay (Cell Titer-Glo), EGFR-insSVD; assay type: cell-based; conditions: without IL-3, with 10 ng/mL EGF, 48 h; read-out: BA/F3 (insSVD) IC50
Method: (§1) 293T cells from ATCC were transfected with pBABEpuro expression constructs for WT EGFR or EGFR-insSVD and pCL-Eco packaging vector using Fugene-6 transfection reagent from Promega. Plates were incubated at 37° C. for 48 h. Retrovirus was harvested by filtering the media supernatant through a 0.45 μm filter.
(§2) Ba/F3 cells purchased from DSMZ were grown in RPMI+10% FBS+10 ng/mL IL-3 and infected with filtered retroviral supernatant at a 1:2 dilution. Polybrene was added to a concentration of 8 μg/mL, plates were spun for 90 min, and incubated overnight at 37° C. 2 μg/mL puromycin was added to the infected cells 24 h after infection and cells were continually grown in the presence of puromycin and 10 ng/mL IL-3. Following stably expressing Ba/F3 cell lines were generated: Ba/F3-EGFR-WT, Ba/F3-EGFR-insSVD, (Ba/F3-vector-control).
(§3) For cell survival assays, Ba/F3 cells were grown to a density of 1-2 million cells per mL, spun down and resuspended in media without IL-3, and replated at a concentration 200,000-500,000 cells per mL. The cells ectopically expressing WT EGFR or EGFR-insSVD were plated with 10 ng/mL Millipore Culture grade EGF. The cells ectopically expressing pBABEpuro empty vector were plated with 10 ng/mL IL-3. 2 days later, cells were plated in 50 μL in a 384 well plate at a concentration of 4000 cells per well for cells assayed in the absence of IL-3 and 2000 cells per well for cells assayed in the presence of IL-3. 100 nL of compound was added to each well using a 100 nL pin head, and plates were incubated at 37° C. for 48 h.
(§4) Cell viability was measured by adding 20 μL of Cell Titer-Glo Luminescent Cell Viability Reagent diluted 1:3 in PBS. Plates were sealed with Perkin Elmer Top-Seal, inverted several times to mix, and immediately centrifuged at 1000 rpm for 2 min. Plates were incubated in low light conditions for 8-10 min and luminescence was measured.

Ba/F3-EGFR-WT cells = Ba/F3-EGFR-WT cells (Homo sapiens, UniProt P00533); assay: Ba/F3 cell survival assay (Cell Titer-Glo), WT EGFR; assay type: cell-based; conditions: without IL-3, with 10 ng/mL EGF, 48 h; read-out: BA/F3 (wild type) IC50
Method: as §1, §2, §3, §4

Bub1 = target: T2, Bub1 (Homo sapiens, UniProt O43683); assay: Bub1 TR-FRET high ATP kinase assay; assay type: biochemical; conditions: 2 mM ATP
T2 construct: catalytic domain of human Bub1 (amino acids 704-1085); His6 (N); made in house; host or cells: Hi5 insect cells
Text: Bub1 High ATP Kinase Assay
Bub1-inhibitory activity of compounds of the present invention at a high ATP concentration was quantified employing the Bub1 TR-FRET high ATP kinase assay as described in the following paragraphs.
N-terminally His6-tagged recombinant catalytic domain of human Bub1 (amino acids 704-1085), expressed in insect cells (Hi5) and purified by Ni-NTA affinity chromatography and subsequent size exclusion chromatography, was used as enzyme. As substrate for the kinase reaction the biotinylated peptide biotin-Ahx-[…]—SEQ ID 7 (C-terminus in amid form) was used which can be purchased e.g. form the company Biosyntan (Berlin, Germany).

[2] = Bub1 high ATP (2 mM) IC50 [mol/l]

T1 sequence (P00533 with tags, fused parts or gaps DUP768-770): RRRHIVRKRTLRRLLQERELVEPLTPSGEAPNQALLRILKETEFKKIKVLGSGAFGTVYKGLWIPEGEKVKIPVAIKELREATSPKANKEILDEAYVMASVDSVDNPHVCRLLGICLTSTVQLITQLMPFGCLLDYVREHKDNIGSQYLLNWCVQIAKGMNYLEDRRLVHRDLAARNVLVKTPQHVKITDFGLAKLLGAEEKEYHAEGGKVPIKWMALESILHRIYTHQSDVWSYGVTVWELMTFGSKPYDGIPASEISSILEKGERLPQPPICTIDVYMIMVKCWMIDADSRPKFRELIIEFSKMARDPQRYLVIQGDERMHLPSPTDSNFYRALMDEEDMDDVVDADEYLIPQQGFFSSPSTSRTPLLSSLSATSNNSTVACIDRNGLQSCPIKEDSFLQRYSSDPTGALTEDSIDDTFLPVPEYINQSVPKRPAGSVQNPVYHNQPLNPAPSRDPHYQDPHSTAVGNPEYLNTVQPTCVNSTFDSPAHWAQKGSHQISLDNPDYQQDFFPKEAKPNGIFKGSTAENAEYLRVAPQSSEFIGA
Chain of Ba/F3-EGFR-insSVD cells (P00533 with tags, fused parts or gaps DUP768-770): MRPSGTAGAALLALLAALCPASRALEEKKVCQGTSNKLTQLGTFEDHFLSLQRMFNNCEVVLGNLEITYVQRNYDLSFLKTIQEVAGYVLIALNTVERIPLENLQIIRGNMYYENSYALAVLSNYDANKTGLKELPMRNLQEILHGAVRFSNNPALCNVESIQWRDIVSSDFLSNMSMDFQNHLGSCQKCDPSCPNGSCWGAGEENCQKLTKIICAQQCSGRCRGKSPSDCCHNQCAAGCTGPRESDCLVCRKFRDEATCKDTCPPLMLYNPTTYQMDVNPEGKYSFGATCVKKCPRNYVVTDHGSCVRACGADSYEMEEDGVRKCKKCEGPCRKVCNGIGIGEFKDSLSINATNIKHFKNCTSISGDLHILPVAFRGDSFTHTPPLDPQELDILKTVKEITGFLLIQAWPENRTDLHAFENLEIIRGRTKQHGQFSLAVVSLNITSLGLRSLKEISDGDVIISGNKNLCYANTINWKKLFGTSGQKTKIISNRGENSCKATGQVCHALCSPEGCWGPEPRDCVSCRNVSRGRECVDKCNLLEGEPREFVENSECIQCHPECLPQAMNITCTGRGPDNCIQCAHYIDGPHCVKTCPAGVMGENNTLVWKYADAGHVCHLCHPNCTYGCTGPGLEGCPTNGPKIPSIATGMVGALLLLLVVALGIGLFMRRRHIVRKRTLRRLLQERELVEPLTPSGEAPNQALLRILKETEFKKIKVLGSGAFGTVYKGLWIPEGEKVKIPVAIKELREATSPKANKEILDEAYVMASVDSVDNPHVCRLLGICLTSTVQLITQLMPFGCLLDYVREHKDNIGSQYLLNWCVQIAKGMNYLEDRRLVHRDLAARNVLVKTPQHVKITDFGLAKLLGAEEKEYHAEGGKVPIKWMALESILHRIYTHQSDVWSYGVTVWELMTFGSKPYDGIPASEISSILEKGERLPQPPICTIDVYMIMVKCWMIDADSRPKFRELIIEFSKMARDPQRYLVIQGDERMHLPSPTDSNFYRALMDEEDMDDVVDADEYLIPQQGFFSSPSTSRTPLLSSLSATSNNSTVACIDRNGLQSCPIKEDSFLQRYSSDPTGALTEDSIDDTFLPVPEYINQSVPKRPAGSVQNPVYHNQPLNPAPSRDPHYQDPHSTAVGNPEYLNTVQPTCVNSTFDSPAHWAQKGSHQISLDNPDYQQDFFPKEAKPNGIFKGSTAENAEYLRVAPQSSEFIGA
T2 sequence (O43683 704-1085): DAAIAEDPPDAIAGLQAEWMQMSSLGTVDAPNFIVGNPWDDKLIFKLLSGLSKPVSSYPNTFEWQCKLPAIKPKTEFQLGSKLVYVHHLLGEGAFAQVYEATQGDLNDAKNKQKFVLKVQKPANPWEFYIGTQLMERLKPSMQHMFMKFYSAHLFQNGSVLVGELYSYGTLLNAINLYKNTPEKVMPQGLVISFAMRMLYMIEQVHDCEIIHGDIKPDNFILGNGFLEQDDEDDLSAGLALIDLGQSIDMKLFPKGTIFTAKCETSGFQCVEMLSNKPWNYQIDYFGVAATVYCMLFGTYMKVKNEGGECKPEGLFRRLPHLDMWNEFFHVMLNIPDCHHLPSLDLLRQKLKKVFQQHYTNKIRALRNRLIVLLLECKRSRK
Chain of Ba/F3-EGFR-WT cells (P00533 whole entry, change not shown): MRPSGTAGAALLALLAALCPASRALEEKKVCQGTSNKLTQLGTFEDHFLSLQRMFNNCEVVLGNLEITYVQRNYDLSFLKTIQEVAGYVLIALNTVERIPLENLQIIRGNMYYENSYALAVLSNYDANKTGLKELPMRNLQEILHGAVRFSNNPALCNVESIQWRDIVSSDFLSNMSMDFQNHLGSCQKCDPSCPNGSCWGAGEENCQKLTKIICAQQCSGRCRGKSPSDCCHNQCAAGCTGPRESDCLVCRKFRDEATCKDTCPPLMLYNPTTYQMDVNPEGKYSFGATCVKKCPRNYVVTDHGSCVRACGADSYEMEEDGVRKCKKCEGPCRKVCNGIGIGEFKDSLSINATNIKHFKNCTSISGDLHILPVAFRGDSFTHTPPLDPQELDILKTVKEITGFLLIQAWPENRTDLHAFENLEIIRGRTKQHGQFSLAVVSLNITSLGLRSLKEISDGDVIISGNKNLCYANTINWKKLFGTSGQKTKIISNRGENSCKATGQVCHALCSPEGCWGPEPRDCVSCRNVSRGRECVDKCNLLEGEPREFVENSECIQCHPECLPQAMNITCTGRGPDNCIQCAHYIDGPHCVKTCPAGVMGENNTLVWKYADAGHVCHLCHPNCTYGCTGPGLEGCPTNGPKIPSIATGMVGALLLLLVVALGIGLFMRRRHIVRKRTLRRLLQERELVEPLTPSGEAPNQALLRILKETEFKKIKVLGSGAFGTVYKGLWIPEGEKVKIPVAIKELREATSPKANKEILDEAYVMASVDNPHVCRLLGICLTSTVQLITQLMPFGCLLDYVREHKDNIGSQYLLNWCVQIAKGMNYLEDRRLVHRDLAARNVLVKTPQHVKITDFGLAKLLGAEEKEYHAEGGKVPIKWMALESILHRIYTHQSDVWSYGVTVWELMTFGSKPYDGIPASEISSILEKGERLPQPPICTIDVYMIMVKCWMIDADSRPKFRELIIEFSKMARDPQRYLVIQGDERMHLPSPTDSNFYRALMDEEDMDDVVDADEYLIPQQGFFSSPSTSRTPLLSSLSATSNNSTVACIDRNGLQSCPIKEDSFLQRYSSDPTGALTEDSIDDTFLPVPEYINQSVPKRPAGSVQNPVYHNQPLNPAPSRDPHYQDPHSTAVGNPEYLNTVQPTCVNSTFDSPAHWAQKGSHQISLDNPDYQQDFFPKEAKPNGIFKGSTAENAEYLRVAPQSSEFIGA

## CCc1c(F)cccc1Nc1c(-c2ccncc2OCC2COC(C)(C)CO2)[nH]c2c1C(=O)NCC2 (single isomer, unassigned) [Example 69, 2-(3-{[5,5-dimethyl-1,4-dioxan-2-yl]methoxy}pyridin-4-yl)-3-(2-ethyl-3-fluoroanilino)-1,5,6,7-tetrahydro-4H-pyrrolo[3,2-c]pyridin-4-one]
[1]
  mutEGFR (D770_N771insSVD) kinase assay IC50: 0.233 nM
Ba/F3-EGFR-insSVD cells
  GI50: 7.17 nM
Ba/F3-EGFR-WT cells
  GI50: 312 nM
Bub1; [2]
  IC50: > 20000 nM

## COc1c(F)cccc1Nc1c(-c2ccncc2OCCC2COCCO2)[nH]c2c1C(=O)NCC2 (single isomer, unassigned) [Example 36, 2-(3-{2-[1,4-dioxan-2-yl]ethoxy}pyridin-4-yl)-3-(3-fluoro-2-methoxyanilino)-1,5,6,7-tetrahydro-4H-pyrrolo[3,2-c]pyridin-4-one]
Ba/F3-EGFR-insSVD cells
  GI50: 68.1 nM
Ba/F3-EGFR-WT cells
  GI50: 845 nM
Bub1; [2]
  IC50: 2820 nM

## COc1c(Cl)cccc1Nc1c(-c2ccncc2OC(C)C2CN(C)CCO2)[nH]c2c1C(=O)NCC2 (centres unmarked) [Example 71, 3-(3-chloro-2-methoxyanilino)-2-[3-({1-[4-methylmorpholin-2-yl]ethyl}oxy)pyridin-4-yl]-1,5,6,7-tetrahydro-4H-pyrrolo[3,2-c]pyridin-4-one]
[1]
  mutEGFR (D770_N771insSVD) kinase assay IC50: 0.405 nM
Ba/F3-EGFR-insSVD cells
  GI50: 132 nM
Ba/F3-EGFR-WT cells
  GI50: 1420 nM
Bub1; [2]
  IC50: > 20000 nM

## Cc1c(F)cccc1Nc1c(-c2ccncc2OCC2CN(C)CCO2)[nH]c2c1C(=O)NCC2 (centres unmarked) [Example 62, 3-(3-fluoro-2-methylanilino)-2-(3-{[4-methylmorpholin-2-yl]methoxy}pyridin-4-yl)-1,5,6,7-tetrahydro-4H-pyrrolo[3,2-c]pyridin-4-one]
[1]
  mutEGFR (D770_N771insSVD) kinase assay IC50: 0.237 nM
Ba/F3-EGFR-insSVD cells
  GI50: 26.7 nM
Ba/F3-EGFR-WT cells
  GI50: 697 nM
Bub1; [2]
  IC50: > 20000 nM

## COc1c(F)cccc1Nc1c(-c2ccncc2OCC2CN(C)CCO2)[nH]c2c1C(=O)NCC2 (single isomer, unassigned) [Example 13, 3-(3-fluoro-2-methoxyanilino)-2-{3-[(4-methylmorpholin-2-yl)methoxy]pyridin-4-yl}-1,5,6,7-tetrahydro-4H-pyrrolo[3,2-c]pyridin-4-one]
[1]
  mutEGFR (D770_N771insSVD) kinase assay IC50: 0.139 nM
Ba/F3-EGFR-WT cells
  GI50: 1520 nM
Bub1; [2]
  IC50: > 20000 nM

## COc1c(Cl)cccc1Nc1c(-c2ccncc2O[C@H](C)C2COCCO2)[nH]c2c1C(=O)NCC2 (single isomer, unassigned) [Example 60]
[1]
  mutEGFR (D770_N771insSVD) kinase assay IC50: 0.305 nM
Ba/F3-EGFR-insSVD cells
  GI50: 52.7 nM
Ba/F3-EGFR-WT cells
  GI50: 946 nM
Bub1; [2]
  IC50: 16400 nM

## COc1c(Cl)cc(F)cc1Nc1c(-c2ccncc2OC[C@@H]2CN(C)CCO2)[nH]c2c1C(=O)NCC2 [Example 27, 3-(3-chloro-5-fluoro-2-methoxyanilino)-2-(3-{[(2S)-4-methylmorpholin-2-yl]methoxy}pyridin-4-yl)-1,5,6,7-tetrahydro-4H-pyrrolo[3,2-c]pyridin-4-one]
[1]
  mutEGFR (D770_N771insSVD) kinase assay IC50: 0.118 nM
Ba/F3-EGFR-insSVD cells
  GI50: 16.9 nM
Ba/F3-EGFR-WT cells
  GI50: 502 nM
Bub1; [2]
  IC50: > 20000 nM

## Cc1c(F)cccc1Nc1c(-c2ccncc2OCC2CN(C)CCO2)[nH]c2c1C(=O)NCC2 (single isomer, unassigned) [Example 63, 3-(3-fluoro-2-methylanilino)-2-(3-{[4-methylmorpholin-2-yl]methoxy}pyridin-4-yl)-1,5,6,7-tetrahydro-4H-pyrrolo[3,2-c]pyridin-4-one]
[1]
  mutEGFR (D770_N771insSVD) kinase assay IC50: 0.265 nM
Ba/F3-EGFR-insSVD cells
  GI50: 147 nM
Ba/F3-EGFR-WT cells
  GI50: 1370 nM
Bub1; [2]
  IC50: > 20000 nM

## CCc1c(F)cccc1Nc1c(-c2ccncc2OCC2COC(C)(C)CO2)[nH]c2c1C(=O)NCC2 (centres unmarked) [Example 68, 2-(3-{[5,5-dimethyl-1,4-dioxan-2-yl]methoxy}pyridin-4-yl)-3-(2-ethyl-3-fluoroanilino)-1,5,6,7-tetrahydro-4H-pyrrolo[3,2-c]pyridin-4-one]
[1]
  mutEGFR (D770_N771insSVD) kinase assay IC50: 0.267 nM
Ba/F3-EGFR-insSVD cells
  GI50: 37.3 nM
Ba/F3-EGFR-WT cells
  GI50: 644 nM
Bub1; [2]
  IC50: > 20000 nM

## COc1c(Cl)cccc1Nc1c(-c2ccncc2O[C@@H](C)C2COCCO2)[nH]c2c1C(=O)NCC2 (single isomer, unassigned) [Example 58, 3-(3-chloro-2-methoxyanilino)-2-{3-[(1 S)-1-(1,4-dioxan-2-yl)ethoxy]pyridin-4-yl}-1,5,6,7-tetrahydro-4H-pyrrolo[3,2-c]pyridin-4-one]
Ba/F3-EGFR-insSVD cells
  GI50: 29.8 nM
Ba/F3-EGFR-WT cells
  GI50: 519 nM
Bub1; [2]
  IC50: 13900 nM

## COc1c(Cl)cccc1Nc1c(-c2ccncc2OC(C)C2CN(C)CCO2)[nH]c2c1C(=O)NCC2 (single isomer, unassigned) [Example 75, 3-(3-chloro-2-methoxyanilino)-2-[3-({1-[-4-methylmorpholin-2-yl]ethyl}oxy)pyridin-4-yl]-1,5,6,7-tetrahydro-4H-pyrrolo[3,2-c]pyridin-4-one]
[1]
  mutEGFR (D770_N771insSVD) kinase assay IC50: 4.99 nM
Ba/F3-EGFR-insSVD cells
  GI50: 571 nM
Ba/F3-EGFR-WT cells
  GI50: 3900 nM
Bub1; read-out: Bub1 high ATP (2 mM) IC50 [mol/l]
  IC50: > 20000 nM

## Cc1c(F)cccc1Nc1c(-c2ccncc2OCC2COCCO2)[nH]c2c1C(=O)NCC2 (centres unmarked) [Example 47, 2-[3-(1,4-dioxan-2-ylmethoxy)-4-pyridyl]-3-(3-fluoro-2-methyl-anilino)-1,5,6,7-tetrahydropyrrolo[3,2-c]pyridin-4-one]
Ba/F3-EGFR-insSVD cells
  GI50: 41.6 nM
Ba/F3-EGFR-WT cells
  GI50: 715 nM
Bub1; [2]
  IC50: 5010 nM

## COc1c(Cl)cccc1Nc1c(-c2ccncc2OCC2COC(C)(C)CO2)[nH]c2c1C(=O)NCC2 (single isomer, unassigned) [Example 31, 3-(3-chloro-2-methoxyanilino)-2-{3-[(5,5-dimethyl-1,4-dioxan-2-yl)methoxy]pyridin-4-yl}-1,5,6,7-tetrahydro-4H-pyrrolo[3,2-c]pyridin-4-one]
[1]
  mutEGFR (D770_N771insSVD) kinase assay IC50: 0.133 nM

## Cc1c(Cl)cccc1Nc1c(-c2ccncc2OCC2COC(C)(C)CO2)[nH]c2c1C(=O)NCC2 (centres unmarked) [Example 44, 3-(3-chloro-2-methyl-anilino)-2-[3-[(5,5-dimethyl-1,4-dioxan-2-yl)methoxy]-4-pyridyl]-1,5,6,7-tetrahydropyrrolo[3,2-c]pyridin-4-one]
[1]
  mutEGFR (D770_N771insSVD) kinase assay IC50: 0.15 nM
Ba/F3-EGFR-insSVD cells
  GI50: 25.7 nM

## COc1c(Cl)cccc1Nc1c(-c2ccncc2O[C@H](C)C2COCCO2)[nH]c2c1C(=O)NCC2 (single isomer, unassigned) [Example 61]
[1]
  mutEGFR (D770_N771insSVD) kinase assay IC50: 0.935 nM
Ba/F3-EGFR-insSVD cells
  GI50: 300 nM
Ba/F3-EGFR-WT cells
  GI50: 3770 nM

## COc1c(Cl)cccc1Nc1c(-c2ccncc2OCC2COC(C)(C)CO2)[nH]c2c1C(=O)NCC2 (centres unmarked) [Example 30, 3-(3-chloro-2-methoxyanilino)-2-{3-[(5,5-dimethyl-1,4-dioxan-2-yl)methoxy]pyridin-4-yl}-1,5,6,7-tetrahydro-4H-pyrrolo[3,2-c]pyridin-4-one]
Ba/F3-EGFR-insSVD cells
  GI50: 19.3 nM
Ba/F3-EGFR-WT cells
  GI50: 407 nM
Bub1; [2]
  IC50: > 20000 nM

## Cc1c(Cl)cccc1Nc1c(-c2ccncc2OCC2COC(C)(C)CO2)[nH]c2c1C(=O)NCC2 (single isomer, unassigned) [Example 45, 3-(3-chloro-2-methyl-anilino)-2-[3-[(5,5-dimethyl-1,4-dioxan-2-yl)methoxy]-4-pyridyl]-1,5,6,7-tetrahydropyrrolo[3,2-c]pyridin-4-one]
[1]
  mutEGFR (D770_N771insSVD) kinase assay IC50: 0.492 nM
Ba/F3-EGFR-WT cells
  GI50: 1640 nM
Bub1; [2]
  IC50: > 5710 nM
